Source: patent US10207988B2, “Methods and compositions for treatment of cancer and autoimmune disease” (THE JACKSON LABORATORY, priority 2011, dated 2019)

Assays:
[1] = tested on: normal C57BL/6J splenic B-cells (AID+/+) versus splenic B-cells from AID−/− mice; test: screening of DIDS derivatives, MultiTox-Fluor Multiplex Cytotoxicity Assay; type: cell-based, mouse; conditions: 10, 50 or 150 μM, 4 days of stimulation with anti-CD40 plus IL-4
Protocol: To identify bioactive derivatives of DIDS, a library of 10^5 chemical variants of DIDS was generated by replacing the sulfonate or isothiocyanate group with other chemical entities, or by altering the double bond joining the two rings in the stilbene backbone. All compounds were resuspended in dimethyl sulfoxide (DMSO) at a stock concentration of […], and used by serial dilution to generate working concentrations of 10, 50, or 150 μM. These were individually pipetted into 96-well microtiter culture dishes in duplicate, generating two plates of 10 μM, two plates of 50 μM, and two plates of 150 μM compounds. In each set, one plate was seeded with 100,000 normal C57BL/6J splenic B-cells (AID+/+) isolated by magnetic bead based sorting to enrich for B220+ IgM+ B-cells; and one plate was seeded with 100,000 splenic B-cells from AID−/− mice identically isolated. Each culture was stimulated on day 0 by addition of 1 μg/ml anti-CD40 plus 25 ng/ml IL-4 to induce proliferation and class-switch recombination. After two days, each culture was re-stimulated by an additional 1 μg/ml anti-CD40 plus 25 ng/ml IL-4. After two additional days in culture, for a total of 4 days of stimulation, viable cell counts were determined in each well of each plate using the MultiTox-Fluor Multiplex Cytotoxicity Assay (Promega, Inc.). For viability measurements, 100 microliters of the 2× MultiTox-Fluor Multiplex Cytotoxicity Reagent was added to each well and mixed before incubating at 37° C. for 30 min. Plates were then transferred to a fluorescence-capable multiplate reader and analyzed using 400 nm excitation and detection of 505 nm emission to measure the fraction of remaining live cells. As controls, wells containing either vehicle alone (DMSO) or 150 μM DIDS were included on each plate. Viability scores for each compound were determined as the fraction of live cells in the normal B-cell plate divided by the fraction of live cells in the corresponding AID knockout plate. Compounds that produce normal/AID knockout ratios at or below the level of the DIDS ratio were considered candidate compounds for further validation and testing. […] The initial screen identified 10 derivatives, BB5-6, BB1-6, BB1-7, BB2-6, BB2-5, BB5-39, BB4B-2, BB5-4, BB5-47, and BB8-1 (FIG. 10).

[2] = tested on: U251, HT-29 and A549 tumor cells; conditions: cited from earlier work
[3] = tested on: primary AID-knockout mouse splenocytes; test: viability of activated AID-null splenocytes treated with NS-123 (Trypan blue); type: cell-based
Protocol: Primary mouse B-cells were isolated from spleens of adult AID−/− mice as described in Example 1. Cultures were established at a concentration of 1×10^6 cells per ml in RPMI-1640 medium with 10% FBS. Cultures were activated with anti-CD40 antibody plus IL-4, and treated with 4′-Bromo-3′ nitropropiophenone (NS-123) (purchased from Calbiochem; CAS No. 101860-83-7) at concentrations of 0.5, 5, 50, or 500 μM. Cells were re-activated by anti-CD40 plus IL-4 after two days in culture. Cell counts were determined after 1, 2, 3, and 4 days in culture by Trypan blue staining. At the concentration of 50 μM and 500 μM of NS-123 AID-null splenocytes were not viable. At the concentration of 5 μM of NS-123 the viability of the splenocytes is reduced when compared to untreated splenocytes (FIG. 12).
Primary AID-knockout mouse splenocytes were seeded in cultures at day 0 at a concentration of 1×10^6 cells/ml in RPMI-1640 medium supplemented with anti-CD40 plus IL-4 to activate B-cells. Individual cultures were supplemented with 0, 5, 10, 20, 30, 40, or 50 μM NS-123 and viable cells were counted after Trypan blue staining on days 1, 2, 3, and 4 (FIG. 13).

Row | SMILES | viability score: fraction of live cells AID+/+ divided by fraction of live cells AID−/− (hit: ratio less than 1) [1] | further results
1 | CC(C)S(=O)(=O)Nc1ccc(/C=C/c2ccc(NS(=O)(=O)C(C)C)cc2)cc1 [BB1-6, (E)-N,N′-(ethene-1,2-diylbis(4,1-phenylene))bis(propane-2-sulfonamide)] | identified | –
2 | CN(C)S(=O)(=O)Nc1ccc(/C=C/c2ccc(NS(=O)(=O)N(C)C)cc2)cc1 [BB1-7, (E)-N,N′-(ethene-1,2-diylbis(4,1-phenylene))bis(dimethylamino-sulfonamide)] | identified | –
3 | CN(C)c1ccc(/C=C/c2ccc(NS(=O)(=O)C3CC3)cc2)cc1 [BB2-5, (E)-N-(4-(4-(dimethylamino)styryl)phenyl)cyclopropanesulfonamide] | identified | –
4 | CC(C)S(=O)(=O)Nc1ccc(/C=C/c2ccc(N(C)C)cc2)cc1 [BB2-6, (E)-N-(4-(4-(dimethylamino)styryl)phenyl)propane-2-sulfonamide] | identified | –
5 | CC(C)NC(=O)Nc1ccc(CCc2ccc(NC(=O)NC(C)C)cc2S(=O)(=O)[O-])c(S(=O)(=O)[O-])c1.[Na+].[Na+] [BB4B-2, sodium 6,6′-(ethane-1,2-diyl)bis(3-(3-isopropylureido)benzenesulfonate)] | identified | –
6 | CC(=O)Nc1ccc(/C=C/c2ccc(NS(=O)(=O)C3CC3)cc2S(=O)(=O)[O-])c(S(=O)(=O)[O-])c1.[Na+].[Na+] [BB5-4, sodium (E)-5-acetamido-2-(4-(cyclopropanesulfonamido)-2-sulfonatostyryl)benzenesulfonate] | identified | –
7 | CC(=O)Nc1ccc(/C=C/c2ccc(NS(=O)(=O)N(C)C)cc2S(=O)(=O)[O-])c(S(=O)(=O)[O-])c1.[Na+].[Na+] [BB5-6, sodium (E)-5-acetamido-2-(4-((N,N-dimethylsulfamoyl)amino)-2-sulfonatostyryl)benzenesulfonate] | identified | –
8 | CC(C)S(=O)(=O)Nc1ccc(/C=C/c2ccc(NC(=S)NC3CC3)cc2S(=O)(=O)[O-])c(S(=O)(=O)[O-])c1.[Na+].[Na+] [BB5-39, sodium (E)-5-(3-cyclopropylthioureido)-2-(4-(1-methylethylsulfonamido)-2-sulfonatostyryl)benzenesulfonate] | identified | –
9 | CCNC(=O)Nc1ccc(/C=C/c2ccc(NC(=O)COC)cc2S(=O)(=O)[O-])c(S(=O)(=O)[O-])c1.[Na+].[Na+] [BB5-47, sodium (E)-5-(3-ethylureido)-2-(4-(2-methoxyacetamido)-2-sulfonatostyryl)benzenesulfonate] | identified | –
10 | CNC(=O)c1ccc(/C=C/c2ccc(C(=O)NC)cc2)cc1 [BB8-1, (E)-4,4′-(ethene-1,2-diyl)bis(N-methylbenzamide)] | identified | –
11 | CCC(=O)c1ccc(Br)c([N+](=O)[O-])c1 [NS-123, 1-(4-bromo-3-nitrophenyl)propan-1-one] | – | concentration enhancing tumor growth-inhibitory effects of ionizing radiation ([2]; U251, HT-29 and A549 tumor cells): ~5 µM; effect on normal cells and organisms ([2]; normal human glial cells, Zebrafish embryos and nude mice): no apparent effect; viability of AID-null splenocytes ([3]; 5 μM NS-123, compared to untreated splenocytes): reduced; viability of AID-null splenocytes ([3]; 50 μM NS-123, activated with anti-CD40 plus IL-4): not viable; viability of AID-null splenocytes ([3]; 500 μM NS-123, activated with anti-CD40 plus IL-4): not viable; LD50 ([3]; AID-null splenocytes, activated with anti-CD40 plus IL-4): 14 µM
